Test results from patent publication US11298339B2 (priority 2017, dated 2022).

What was measured:
Format in all cases: in vivo, C57BL/6J mice
[1] = system: HBV; assay: Comparison of Compound 1 and Birinapant in chronic HBV infection mouse model (pAAV-HBV1.2 plasmid); conditions: for proportion of mice with serum HBsAg levels below the lower limit of detection: after 4 weeks of administration; for serum HBsAg level (individual): after one week of drug treatment
Method: Among them, there were 7 mice in each of Group A and Group B, and 6 mice in Group C. Compound 1 and Birinapant were administered once a week for five consecutive weeks. Blood was collected at orbital margin each week before the administration, and the HBsAg/HBeAg levels in supernatant were detected using Roche 601 instrument.

[2] = system: HBV; assay: Compound 1 in combination with IFNα2a in chronic HBV infection mouse model (pAAV-HBV1.2 plus pKCMvint IFNα-2a or control plasmid)
Method: One day after modeling, the mice were divided into 4 groups. […] There were 5 mice in each group (except Group D that included 7 mice), the administration was performed for consecutive 3 times, i.e., on the day 1 after modeling, and on the days 7 and 14 after modeling; blood was collected once at orbital margin one day before the administration, and serum HBsAg/HBeAg levels were detected using Roche 601 instrument.

[3] = system: HBV; assay: Compound 1 and SF18 in mouse model established by rAAV8-HBV1.3 (ayw) virus tail vein injection; conditions: 20 mg/kg i.v.
Method: Among them, there were 3 mice in each group. Administration was carried out for consecutive four weeks, blood was collected at orbital margin once per week, and HBsAg/HBeAg levels in supernatant were detected by Roche 601 instrument.

[4] = system: HBV-specific T cell response; assay: HBV immune response in mice: liver lymphocyte counts and HBV-specific T cell response (flow cytometry, Core93-100 stimulation); conditions: 20 mg/kg once a week x4, 7th week
Method: There were 5 to 6 mice in each group, which were administered once a week for four consecutive times, and sacrificed on the 7th week, the mice liver lymphocytes were isolated, and cell counts and flow cytometry were used to detect the expression of CD4 and CD8 molecules in lymphocytes in the liver. The detection of HBV-specific T cell response was performed by using HBV core monopeptide (Core93-100) to stimulate lymphocytes, and the counts of CD4+ and CD8+ T cells that secreted IFNγ, TNFα and IL-2 were detected by flow cytometry cytokine intracellular staining method.

[5] = molecular target: T1, cIAP2 (Mus musculus, UniProt O08863); assay: Western blot of cIAPs molecules in liver tissue after Compound 1 injection; conditions: 10 mg/kg i.v.
T1 construct: Western blot was used to detect the expression of cIAPs molecules in liver tissues; from tissue; host or cells: liver tissue of C57BL/6J mice (HBV model, pAAV-HBV1.2)
From the text: (§1) Chronic HBV infection mouse models were established by high-pressure tail vein injection of pAAV-HBV1.2 plasmid or recombinant virus rAAV8-1.3HBV injection of C57BL/6J mice (6 to 8 weeks of age, weight 20 f 2 g). […] Glutamic-oxalacetic transaminase (AST/GOT) kit (Nanjing Jiancheng, C010-2) and glutamic-pyruvic transaminase (ALT/GPT) kit (Nanjing Jiancheng, C009-2) were used to detect serum ALT and AST levels. Western blot was used to detect the expression of cIAPs molecules in liver tissues, and β-actin was used as a control. Intrahepatic inflammation and hepatocyte necrosis were detected by HE staining of liver tissue sections.

[6] = system: HBV; assay: Compound 1 alone in chronic HBV infection mouse model (high-pressure tail vein injection of pAAV-HBV1.2 plasmid)
Method: Male C57/B6 mice (6-8 weeks of age, body weight 20 f 2 g) were selected to establish a high-pressure tail vein injection mouse model, in which the tail of mice was wiped with 75% alcohol, and then irradiated with a far-infrared physiotherapy device for 2 to 3 minutes so that the tail vein of mice was turgid and clearly visible. […] Each mouse was injected with 10 μg of pAAV/HBV1.2 plasmid, and the amount of injection liquid (PBS) was 10% of body weight (2 mL/20 g). On the 14th day after the injection, blood was collected to detect HBsAg, and the successfully modeled mice with HBsAg>500 IU/ml were selected for further experiments (Huang, Wu et al. 2006; Chou, Chien et al. 2015). […] There were 6-8 mice in each group, which were administered once a week for 4 consecutive times and observed for 7 weeks.
After the mice serum were diluted 20-fold with PBS, the HBsAg and HBeAg titers of the serum were detected by using Abbott i2000SR microparticle chemiluminescence automatic detector. The serum HBV DNA was extracted by QIAamp DNA Mini Kit (Qiagen), the HBV DNA level in serum was quantified by Realtime-PCR (LightCycler 480, Roche) using DNA Amplification SYBR Green Kit (Roche), and the HBV plasmid PSM2 products with a series of concentration gradients were used as standards. The HBV primers used in this experiment were synthesized by Invitrogen (Shanghai) Trading Co., Ltd., and the primer sequences were as follows: HBV Hope-F (5′ to 3′ […]) and HBV Hope-R (5′ to 3′ […]). The liver tissues of mice were subjected to conventional formalin-fixation and paraffin-embedding, the resultant 4 μm sections were baked at 65° C. for 2 h, dehydrated with conventional ethanol gradients, infiltrated with hydrogen peroxide at room temperature for 30 min, washed with PBS for 5 min/time, 3 times in total, and blocked at room temperature for 1 h. After rabbit-anti-human HBcAg (B0586, DAKO) was added and incubated in a wet box at room temperature for 1 h, a GTvision III immunohistochemical detection kit of anti-rabbit anti-mice general type (GK50075, Shanghai Gene Technology Co., Ltd.) was used for incubation of secondary antibodies and development of color, and pictures at 200× magnification were taken with a normal optical upright microscope. 60 mg of liver tissue homogenate was weighed, added with 900 μl of lysate (50 mmol/L Tris-HCl PH 7.5+1 mmol/L EDTA), placed on ice, and after all samples were processed, 5 μl of […] was added and lysis was performed on ice, and then HBV DNA in liver tissue was extracted with phenol/chloroform, dissolved by adding 15 μl of RNase free water, run on a 1% agarose gel, transferred to membrane; then a full-length HBV probe labeled with digoxin was added, stood overnight at 46° C., subjected to DIG Washing Buffer once for 5 min, added with Anti-Digoxigenin-Ap Fab fragment (11093274910, Roche), and Image Quant LAS 4000mini was used for exposure and detection.

[7] = Liver damage after Compound 1 injection in HBV-infected mice (serum ALT/AST, HE staining of liver sections)
From the text: as §1

[8] = system: HBV; assay: Compound 1 in combination with TDF in pAAV-HBV1.2 high-pressure tail vein injection mouse model; conditions: Compound 1 10 mg/kg i.v. weekly x4; TDF 53 mg/kg gavage daily 10 days; observed 7 weeks
Method: After the mice serum were diluted 20-fold with PBS, the HBsAg and HBeAg titers of the serum were detected by using Abbott i2000SR microparticle chemiluminescence automatic detector. The serum HBV DNA was extracted by QIAamp DNA Mini Kit (Qiagen), the HBV DNA level in serum was quantified by Realtime-PCR (LightCycler 480, Roche) using DNA Amplification SYBR Green Kit (Roche), and the HBV plasmid PSM2 products with a series of concentration gradients were used as standards. The HBV primers used in this experiment were synthesized by Invitrogen (Shanghai) Trading Co., Ltd., and the primer sequences were as follows: HBV Hope-F (5′ to 3′ […]) and HBV Hope-R (5′ to 3′ […]). The liver tissues of mice were subjected to conventional formalin-fixation and paraffin-embedding, the resultant 4 μm sections were baked at 65° C. for 2 h, dehydrated with conventional ethanol gradients, infiltrated with hydrogen peroxide at room temperature for 30 min, washed with PBS for 5 min/time, 3 times in total, and blocked at room temperature for 1 h. […]

[9] = system: HBV; assay: Compound 1 in combination with anti-PD1 antibody in chronic HBV infection mouse model (pAAV-HBV1.2 plasmid)
From the text: Among them, there were 7 mice in each group.

[10] = system: HBcAg-positive liver cells; assay: Apoptosis of HBV-infected liver cells, HBcAg immunofluorescence and Tunnel double staining, rAAV8-HBV1.3 virus injection mouse model; conditions: 20 mg/kg i.v.; 12 h after injection
From the text: as §1

[11] = stimulation with HBV core monopeptide (Core93-100)
[12] = 20 mg/kg i.v. once a week x4, on the 5th week, faster than 10 mg/kg group
[13] = Compound 1 injection groups (10 and 20 mg/kg i.v., once a week x4), up to the 7th week
[14] = 10 mg/kg i.v., 12, 24, 48 hours after injection
[15] = Compound 1 20 mg/kg i.v. once per week, anti-PD1 antibody 200 μg/mice/time i.p. twice per week, five weeks

T1 sequence (O08863 whole entry): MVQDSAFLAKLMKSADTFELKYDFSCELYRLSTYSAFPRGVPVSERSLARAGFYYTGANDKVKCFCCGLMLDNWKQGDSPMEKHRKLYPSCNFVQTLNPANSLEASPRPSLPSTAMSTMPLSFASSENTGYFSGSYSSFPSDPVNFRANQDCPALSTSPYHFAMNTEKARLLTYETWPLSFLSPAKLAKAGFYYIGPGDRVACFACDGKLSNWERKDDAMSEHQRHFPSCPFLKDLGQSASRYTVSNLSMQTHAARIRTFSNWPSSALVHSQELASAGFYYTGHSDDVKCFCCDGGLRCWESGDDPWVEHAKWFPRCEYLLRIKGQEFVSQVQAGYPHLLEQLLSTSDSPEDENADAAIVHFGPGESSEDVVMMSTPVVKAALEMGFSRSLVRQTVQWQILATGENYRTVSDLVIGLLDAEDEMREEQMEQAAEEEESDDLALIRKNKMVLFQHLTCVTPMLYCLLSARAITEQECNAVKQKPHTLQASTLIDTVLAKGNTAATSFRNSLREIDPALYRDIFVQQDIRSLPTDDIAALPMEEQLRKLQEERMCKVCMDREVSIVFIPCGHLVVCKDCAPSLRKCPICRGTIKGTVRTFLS

Question: Which results are given for `CC[C@H](NC(=O)[C@H](C)NC)C(=O)N1C[C@@H](O)C[C@H]1Cc1c(-c2[nH]c3cc(F)ccc3c2C[C@@H]2C[C@H](O)CN2C(=O)[C@H](CC)NC(=O)[C@H](C)NC)[nH]c2cc(F)ccc12` [Birinapant, reference compound]?
Answer: proportion of mice with serum HBsAg levels below the lower limit of detection ([1]; 20 mg/kg i.v. once a week): 57%; serum HBsAg level (individual) ([1]; 20 mg/kg i.v.): decreased significantly

Question: With `CN[C@@H](C)C(=O)N[C@H]1CN(S(=O)(=O)c2cccc(S(=O)(=O)N3CC[C@H]4CC[C@@H](C(=O)NC(c5ccccc5)c5ccccc5)N4C(=O)[C@@H](NC(=O)[C@H](C)NC)C3)c2)CC[C@H]2CCC(C(=O)NC(c3ccccc3)c3ccccc3)N2C1=O` (stereo partly drawn) [Compound 1] as the compound, how does the “serum HBsAg compared with Group C (IFNα-2a)” value ([2]; 21st day, P 0.008) read?
Answer: decreased significantly

Question: What about the “serum HBeAg compared with Group A (saline)” value ([2]; days 7, 14, 21 (P 0.004 on 7th day, 0.021 on 7th day as printed, 0.001 on 21st day)) of the same compound?
Answer: statistically significant differences

Question: And the “serum HBsAg compared with Group A (saline)” value ([2]; days 7, 14, 21 (P 0.010, 0.008, 0.004), Compound 1 10 mg/kg i.v. days 1, 7, 14, IFNα-2a plasmid-expressed)?
Answer: statistically significant differences

Question: And the “anti-HBV effect (conclusion)” value ([3]; four weeks)?
Answer: anti-HBV effect

Question: What about the “count of infiltrated CD4+ T cells in the liver vs control” value [4] of the same compound?
Answer: significantly increased

Question: And the “count of infiltrated CD8+ T cells in the liver vs control” value [4]?
Answer: significantly increased

Question: And the “total lymphocyte number in the liver vs normal saline control” value [4]?
Answer: significantly higher

Question: And the “counts of CD4+ T cells that secreted IFNγ, TNFα and IL-2” value [4, 11]?
Answer: increased significantly

Question: What about the “counts of CD8+ T cells that secreted IFNγ, TNFα and IL-2” value [4, 11] of the same compound?
Answer: increased significantly

Question: And the “time at which inhibition of cIAP2 reached the strongest value” [5]?
Answer: 12 h

Question: And the “inhibitory effect on cIAP2 in liver tissues (Western blot)” value ([5]; 12, 24, 48 h)?
Answer: strong inhibitory effect

Question: And the “serum HBV DNA” value [6, 12]?
Answer: completely eliminated

Question: What about the “serum HBsAg” value [6, 12] of the same compound?
Answer: completely eliminated

Question: What about the “HBV replication intermediate in liver tissue (Southern blot)” value ([6]; 7 weeks after administration, compared with saline group) of the same compound?
Answer: no HBV replication intermediate was detected

Question: And the “serum HBV DNA” value [6, 13]?
Answer: below the detection limit

Question: And the “serum HBsAg” value [6, 13]?
Answer: below the detection limit

Question: What about the “HBcAg expression in liver (immunohistochemical staining)” value ([6]; after 7 weeks of administration) of the same compound?
Answer: not observed

Question: And the “time at which serum ALT returned to normal levels” value ([7]; 10 mg/kg i.v.)?
Answer: around 48 hours

Question: And the “time at which serum ALT rose to the highest value” ([7]; 10 mg/kg i.v.)?
Answer: 12 h

Question: What about the “time at which serum AST returned to normal levels” value ([7]; 10 mg/kg i.v.) of the same compound?
Answer: around 48 hours

Question: And the “time at which serum AST rose to the highest value” ([7]; 10 mg/kg i.v.)?
Answer: 12 h

Question: What about the “serum ALT change after injection” value [7, 14] of the same compound?
Answer: transient increase

Question: What about the “serum AST change after injection” value [7, 14] of the same compound?
Answer: transient increase

Question: And the “liver tissue HE staining” value ([7]; 10 mg/kg i.v., 12 hours after injection, vicinity of portal areas, with lymphocyte infiltration)?
Answer: scattered necrotic lesions

Question: And the “intrahepatic inflammation / fulminant hepatitis” value ([7]; after Compound 1 injection, only transient intrahepatic inflammation)?
Answer: did not cause fulminant hepatitis

Question: And the “serum HBsAg clearance rate in comparison with control group” value [8]?
Answer: statistically significant differences

Question: What about the “serum HBeAg (individual) compared with Group A (saline)” value ([9]; 1st and 2nd weeks (P 0.029, 0.009)) of the same compound?
Answer: statistically significant differences

Question: And the “serum HBeAg compared with Group C (anti-PD1 antibody)” value ([9]; 1st and 2nd weeks, P week 1 0.016 (Group B), 0.007 (Group D), week 2 0.007, 0.002)?
Answer: decreased more significantly

Question: What about the “serum HBeAg level (overall)” value [9, 15] of the same compound?
Answer: significantly reduce

Question: What about the “serum HBsAg level (overall)” value [9, 15] of the same compound?
Answer: significantly reduce

Question: And the “clearance effect of HBsAg (overall level) vs saline injection group” value ([1]; 20 mg/kg i.v. once a week, five weeks)?
Answer: statistically significant difference

Question: And the “proportion of mice with serum HBsAg levels below the lower limit of detection” value ([1]; 20 mg/kg i.v. once a week)?
Answer: 86%

Question: And the “serum HBsAg level (individual)” value ([1]; 20 mg/kg i.v.)?
Answer: decreased significantly

Question: And the “serum HBsAg level compared with Brinapant group” value ([1]; 20 mg/kg i.v., after one week, p=0.035)?
Answer: significantly lower than that of the Brinapant group

Question: What about the “clearance effect of HBsAg and HBeAg, overall comparison” value ([1]; same dosage and mode of administration (20 mg/kg i.v.)) of the same compound?
Answer: superior to Birinapant

Question: And the “apoptosis of HBcAg-positive liver cells” value [10]?
Answer: could be induced

Question: Which deaths during administration ([3]; 3 mice in the group) does the source give for `CN[C@@H](C)C(=O)N[C@H]1CN(C(=O)Nc2ccc(NC(=O)N3CC[C@H]4CC[C@@H](C(=O)NC(c5ccccc5)c5ccccc5)N4C(=O)[C@@H](NC(=O)[C@H](C)NC)C3)cc2)CC[C@H]2CC[C@@H](C(=O)NC(c3ccccc3)c3ccccc3)N2C1=O` [SF18] here?
Answer: one mice died on the 2nd week and 4th week

Question: And the “anti-HBV effect (conclusion)” value ([3]; four weeks)?
Answer: stronger than that of Compound 1

Question: And the “decrease rate of HBeAg in mice serum” value ([3]; four weeks)?
Answer: significantly faster than those of the Compound 1 group

Question: And the “decrease rate of HBsAg in mice serum” value ([3]; four weeks)?
Answer: significantly faster than those of the Compound 1 group
